Test results published in patent US12679878B2, “CRF2 receptor agonists and their use in therapy” (SANOFI, priority 2020, dated 2026).
Where two headings read alike, the source gives them in different places. Starred links: 1 amine or outer side, 2 acyl side, 3 side chain; linkers in the order of their positions; H or OH if unused. Non-standard residues stand in square brackets, D forms with d. Residues, ends and D or L forms follow the SMILES beside them. Groups on a side chain read outwards from the residue. *: point of attachment. C20 diacid = O=C(O)CCCCCCCCCCCCCCCCCCC(=O)*; C18 diacid = O=C(O)CCCCCCCCCCCCCCCCC(=O)*; γGlu = O=C(O)[C@H](CCC(=O)[*:2])N[*:1]; AEEA = NCCOCCOCC(=O)O; Aib = CC(C)(N)C(=O)O

Tests used:
Type in all cases: cell-based
CRF1R receptor = target: T1, CRF1R receptor (Homo sapiens, UniProt P34998); experiment: cAMP activity at anti-target CRF1R, CRF1R-overexpression CHO cell line (Example 9); conditions: CRF1R-overexpression CHO cell line; for EC50: 0% HSA; for Emax: read-out: Emax (%)
T1 construct: host or cells: CHO-K1 clone 2
T1 sequence (P34998 24-415): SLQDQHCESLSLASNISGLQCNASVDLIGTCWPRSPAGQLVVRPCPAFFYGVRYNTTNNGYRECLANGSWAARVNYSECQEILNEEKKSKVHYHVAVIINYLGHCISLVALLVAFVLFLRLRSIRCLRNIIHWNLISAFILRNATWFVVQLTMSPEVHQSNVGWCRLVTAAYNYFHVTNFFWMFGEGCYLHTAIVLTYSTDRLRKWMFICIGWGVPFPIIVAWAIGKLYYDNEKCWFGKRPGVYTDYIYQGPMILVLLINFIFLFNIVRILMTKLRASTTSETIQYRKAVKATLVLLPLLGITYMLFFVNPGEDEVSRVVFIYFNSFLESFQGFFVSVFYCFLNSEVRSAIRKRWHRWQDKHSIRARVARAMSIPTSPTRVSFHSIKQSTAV
How it was run: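 Using thawed CRF1R-overexpressing CHO cells at 2000 per well, compound is applied for 30 min at RT in HBSS/HEPES buffer with IBMX. Cellular cAMP content is determined via HTRF, and percent activity is calculated against 1000 nM UCN2 defined as 100%.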

human CRF2α receptor = target: T2, human CRF2α receptor (Homo sapiens, UniProt Q13324); experiment: cAMP agonism at human CRF2 α receptor in TeloHEAC cells (Example 7); conditions: cAMP HTRF, TeloHEAC cells stably expressing human CRF2 α
T2 construct: expressed in transfected cells; host or cells: TeloHEAC
T2 sequence (Q13324 1-411): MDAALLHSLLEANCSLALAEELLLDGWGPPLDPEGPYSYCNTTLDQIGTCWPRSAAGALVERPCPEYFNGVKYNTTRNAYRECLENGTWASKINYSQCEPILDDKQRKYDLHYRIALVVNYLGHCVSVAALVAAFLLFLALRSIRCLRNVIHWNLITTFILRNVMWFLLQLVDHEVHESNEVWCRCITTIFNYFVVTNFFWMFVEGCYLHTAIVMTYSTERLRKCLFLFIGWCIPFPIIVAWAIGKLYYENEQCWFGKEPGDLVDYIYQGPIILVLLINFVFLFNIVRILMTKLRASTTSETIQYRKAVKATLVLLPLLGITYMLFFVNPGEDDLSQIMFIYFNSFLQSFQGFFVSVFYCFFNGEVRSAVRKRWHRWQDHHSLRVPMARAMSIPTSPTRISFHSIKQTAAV
How it was run: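 Steps: thaw and wash cells; suspend in 1×HBSS, 20 mM HEPES, 0 or 0.1% HSA, 2 mM IBMX; add compound, 30 min RT; lyse with HTRF reagents, 1 h; read 665/620 nm. EC50 calculated, E% versus 1000 nM UCN2.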

rat CRF2R α receptor = experiment: cAMP agonism at rat CRF2R α receptor in A7R5 rat aortic smooth muscle cells (Example 8); conditions: cAMP HTRF, A7R5 rat aortic smooth muscle cell line, 0% HSA
How it was run: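 Potency (EC50) is the concentration reaching half-maximal activation, with responses scaled so that 1000 nM urocortin 2 equals 100%. Intracellular cAMP was quantified by homogeneous time-resolved fluorescence at 665/620 nm, 1 h after lysis-buffer reagents. Compound stimulation lasted 30 min at room temperature on 2000 IBMX-treated (2 mM) cells per well in HEPES-buffered HBSS.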

[1] = 0% HSA, read-out: EC50 [nM], 0% HSA
[2] = 0.1% HSA, read-out: EC50 [nM], 0.1% HSA

SMILES	EC50 (CRF1R receptor) [nM]	Emax (CRF1R receptor) [%]	EC50 (human CRF2α receptor; [1]) [nM]	EC50 (rat CRF2R α receptor) [nM]	EC50 (human CRF2α receptor; [2]) [nM]
CC[C@H](C)[C@H](N)C(=O)N[C@H](C(=O)N[C@@H](CC(C)C)C(=O)N[C@@H](CO)C(=O)N[C@@H](CC(C)C)C(=O)N[C@@H](CC(=O)O)C(=O)N[C@H](C(=O)N1CCC[C@H]1C(=O)N[C@H](C(=O)N[C@@H](CCCCN)C(=O)N[C@@H](CC(C)C)C(=O)N[C@@H](CCCCNC(=O)COCCOCCNC(=O)COCCOCCNC(=O)CC[C@H](NC(=O)CCCCCCCCCCCCCCCCC(=O)O)C(=O)O)C(=O)N[C@@H](CCC(N)=O)C(=O)N[C@H](C(=O)N[C@@H](CC(C)C)C(=O)N[C@@H](CC(C)C)C(=O)N[C@@H](CCC(=O)O)C(=O)N[C@@H](CCC(N)=O)C(=O)N[C@@H](CCC(=O)O)C(=O)N[C@@H](CCCNC(=N)N)C(=O)N[C@@H](CCC(N)=O)C(=O)N[C@@H](CCCCN)C(=O)N[C@@H](CCCCN)C(=O)N[C@@H](CCC(N)=O)C(=O)N[C@@H](CCCNC(=N)N)C(=O)N[C@@H](CCC(=O)O)C(=O)N[C@@H](CCC(N)=O)C(=O)N[C@@H](C)C(=O)N[C@@H](CCC(=O)O)C(=O)N[C@H](C(=O)N[C@@H](CC(N)=O)C(=O)NC(C)(C)C(=O)N[C@@H](CCC(N)=O)C(=O)N[C@H](C(=O)N[C@@H](CC(C)C)C(=O)N[C@@H](C)C(=O)N[C@@H](CCC(N)=O)C(=O)N[C@H](C(N)=O)C(C)C)[C@@H](C)CC)[C@@H](C)O)[C@@H](C)CC)[C@@H](C)CC)C(C)C)C(C)C [compound 70] (H-IVLSLDVPIKLK([AEEA-AEEA-γGlu-C18 diacid])QILLEQERQKKQREQAETN[Aib]QILAQV-NH2; N-terminus assumed)	> 1000	3.03	0.91	8.72	–
CC[C@H](C)[C@H](N)C(=O)N[C@H](C(=O)N[C@@H](CC(C)C)C(=O)N[C@@H](CO)C(=O)N[C@@H](CC(C)C)C(=O)N[C@@H](CC(=O)O)C(=O)N[C@H](C(=O)N1CCC[C@H]1C(=O)N[C@H](C(=O)N[C@@H](CCCCN)C(=O)N[C@@H](CC(C)C)C(=O)N[C@@H](CCCCNC(=O)COCCOCCNC(=O)COCCOCCNC(=O)CC[C@H](NC(=O)CCCCCCCCCCCCCCCCCCC(=O)O)C(=O)O)C(=O)N[C@@H](CCC(N)=O)C(=O)N[C@H](C(=O)N[C@@H](CC(C)C)C(=O)N[C@@H](CC(C)C)C(=O)N[C@@H](CCC(=O)O)C(=O)N[C@@H](CCC(N)=O)C(=O)N[C@@H](CCC(=O)O)C(=O)N[C@@H](CCCNC(=N)N)C(=O)N[C@@H](CCC(N)=O)C(=O)N[C@@H](CCCCN)C(=O)N[C@@H](CCCCN)C(=O)N[C@@H](CCC(N)=O)C(=O)N[C@@H](CCCNC(=N)N)C(=O)N[C@@H](CCC(=O)O)C(=O)N[C@@H](CCC(N)=O)C(=O)N[C@@H](C)C(=O)N[C@@H](CCC(=O)O)C(=O)N[C@H](C(=O)N[C@@H](CC(N)=O)C(=O)NC(C)(C)C(=O)N[C@@H](CCC(N)=O)C(=O)N[C@H](C(=O)N[C@@H](CC(C)C)C(=O)N[C@@H](C)C(=O)N[C@@H](CCC(N)=O)C(=O)N[C@H](C(N)=O)C(C)C)[C@@H](C)CC)[C@@H](C)O)[C@@H](C)CC)[C@@H](C)O)C(C)C)C(C)C [compound 80] (H-IVLSLDVPTKLK([AEEA-AEEA-γGlu-C20 diacid])QILLEQERQKKQREQAETN[Aib]QILAQV-NH2)	> 1000	12.7	0.9	5.2	92.5
CC[C@H](C)[C@H](N)C(=O)N[C@H](C(=O)N[C@@H](CC(C)C)C(=O)N[C@@H](CO)C(=O)N[C@@H](CC(C)C)C(=O)N[C@@H](CC(=O)O)C(=O)N[C@H](C(=O)N1CCC[C@H]1C(=O)N[C@H](C(=O)N[C@@H](CCCCN)C(=O)N[C@@H](CC(C)C)C(=O)N[C@@H](CCCCNC(=O)COCCOCCNC(=O)COCCOCCNC(=O)CC[C@H](NC(=O)CCCCCCCCCCCCCCCCC(=O)O)C(=O)O)C(=O)N[C@@H](CCC(N)=O)C(=O)N[C@H](C(=O)N[C@@H](CC(C)C)C(=O)N[C@@H](CC(C)C)C(=O)N[C@@H](CCCCN)C(=O)N[C@@H](CCC(N)=O)C(=O)N[C@@H](CCC(=O)O)C(=O)N[C@@H](CCCNC(=N)N)C(=O)N[C@@H](CCC(N)=O)C(=O)N[C@@H](CCCCN)C(=O)N[C@@H](CCCCN)C(=O)N[C@@H](CCC(N)=O)C(=O)N[C@@H](CCCNC(=N)N)C(=O)N[C@@H](CCC(=O)O)C(=O)N[C@@H](CCC(N)=O)C(=O)N[C@@H](C)C(=O)N[C@@H](CCCCN)C(=O)N[C@H](C(=O)N[C@@H](CC(N)=O)C(=O)N[C@@H](CCCCN)C(=O)N[C@@H](CCC(N)=O)C(=O)N[C@H](C(=O)N[C@@H](CC(C)C)C(=O)N[C@@H](C)C(=O)N[C@@H](CCC(N)=O)C(=O)N[C@H](C(N)=O)C(C)C)[C@@H](C)CC)[C@@H](C)O)[C@@H](C)CC)[C@@H](C)CC)C(C)C)C(C)C [compound 86] (H-IVLSLDVPIKLK([AEEA-AEEA-γGlu-C18 diacid])QILLKQERQKKQREQAKTNKQILAQV-NH2; N-terminus assumed)	> 1000	15.9	0.11	0.69	5.7

Results, then the compound that gave them:

EC50 (CRF1R receptor) [nM]	Emax (CRF1R receptor) [%]	EC50 (human CRF2α receptor; [1]) [nM]	EC50 (rat CRF2R α receptor) [nM]	EC50 (human CRF2α receptor; [2]) [nM]	SMILES
> 1000	0.02	0.61	7.33	–	CC[C@H](C)[C@H](N)C(=O)N[C@H](C(=O)N[C@@H](CC(C)C)C(=O)N[C@@H](CO)C(=O)N[C@@H](CC(C)C)C(=O)N[C@@H](CC(=O)O)C(=O)N[C@H](C(=O)N1CCC[C@H]1C(=O)N[C@H](C(=O)N[C@@H](CCCCN)C(=O)N[C@@H](CC(C)C)C(=O)N[C@@H](CCCCNC(=O)COCCOCCNC(=O)COCCOCCNC(=O)CC[C@H](NC(=O)CCCCCCCCCCCCCCCCC(=O)O)C(=O)O)C(=O)N[C@@H](CCCCN)C(=O)NC(C)(C)C(=O)N[C@@H](CC(C)C)C(=O)N[C@@H](CC(C)C)C(=O)N[C@@H](CCC(=O)O)C(=O)N[C@@H](CCC(N)=O)C(=O)N[C@@H](CCC(=O)O)C(=O)N[C@@H](CCCNC(=N)N)C(=O)N[C@@H](CCC(N)=O)C(=O)N[C@@H](CCCCN)C(=O)N[C@@H](CCCCN)C(=O)N[C@@H](CCC(N)=O)C(=O)N[C@@H](CCCNC(=N)N)C(=O)N[C@@H](CCC(=O)O)C(=O)N[C@@H](CCC(N)=O)C(=O)N[C@@H](C)C(=O)N[C@@H](CCC(=O)O)C(=O)N[C@H](C(=O)N[C@@H](CC(N)=O)C(=O)N[C@@H](CCCCN)C(=O)N[C@@H](CCC(N)=O)C(=O)N[C@H](C(=O)N[C@@H](CC(C)C)C(=O)N[C@@H](C)C(=O)N[C@@H](CCC(N)=O)C(=O)N[C@H](C(N)=O)C(C)C)[C@@H](C)CC)[C@@H](C)O)[C@@H](C)CC)C(C)C)C(C)C [compound 69] (H-IVLSLDVPIKLK([AEEA-AEEA-γGlu-C18 diacid])K[Aib]LLEQERQKKQREQAETNKQILAQV-NH2; N-terminus assumed)
> 1000	0.14	0.1	0.73	3.58	CC[C@H](C)[C@H](N)C(=O)N[C@H](C(=O)N[C@@H](CC(C)C)C(=O)N[C@@H](CO)C(=O)N[C@@H](CC(C)C)C(=O)N[C@@H](CC(=O)O)C(=O)N[C@H](C(=O)N1CCC[C@H]1C(=O)N[C@H](C(=O)N[C@@H](CCCCN)C(=O)N[C@@H](CC(C)C)C(=O)N[C@@H](CCCCNC(=O)COCCOCCNC(=O)COCCOCCNC(=O)CC[C@H](NC(=O)CCCCCCCCCCCCCCCCC(=O)O)C(=O)O)C(=O)N[C@@H](CCC(N)=O)C(=O)N[C@H](C(=O)N[C@@H](CC(C)C)C(=O)N[C@@H](CC(C)C)C(=O)N[C@@H](CCCCN)C(=O)N[C@@H](CCC(N)=O)C(=O)N[C@@H](CCC(=O)O)C(=O)N[C@@H](CCCNC(=N)N)C(=O)N[C@@H](CCC(N)=O)C(=O)N[C@@H](CCCCN)C(=O)N[C@@H](CCCCN)C(=O)N[C@@H](CCC(N)=O)C(=O)N[C@@H](CCCNC(=N)N)C(=O)N[C@@H](CCC(=O)O)C(=O)N[C@@H](CCC(N)=O)C(=O)N[C@@H](C)C(=O)N[C@@H](CCC(=O)O)C(=O)N[C@H](C(=O)N[C@@H](CC(N)=O)C(=O)N[C@@H](CCCCN)C(=O)N[C@@H](CCC(N)=O)C(=O)N[C@H](C(=O)N[C@@H](CC(C)C)C(=O)N[C@@H](C)C(=O)N[C@@H](CCC(N)=O)C(=O)N[C@H](C(N)=O)C(C)C)[C@@H](C)CC)[C@@H](C)O)[C@@H](C)CC)[C@@H](C)CC)C(C)C)C(C)C [compound 85] (H-IVLSLDVPIKLK([AEEA-AEEA-γGlu-C18 diacid])QILLKQERQKKQREQAETNKQILAQV-NH2; N-terminus assumed)
